This note sets out measurements from patent US6863907B2, “Antiallergic composition and antipruritic composition” (Sunstar, Inc., priority 1999, dated 2005).

Structures are written as SMILES.

This test has as its system human basophilic leukemia cell line KU812. Briefly: Histamine release suppression test using human basophilic leukemia cell line KU812. It counts as cell-based. The note with it: KU812 cells, final concentration 0.01%, CRA-1 15 μg/ml stimulation, N=4. The procedure: Histamine Release Suppression Test Using Human Basophilic Leukemia Cell Line KU812
A human basophilic leukemia cell line KU812 was grown in a RPMI 1640 medium (GIBCO) supplemented with 10% fetal bovine serum (treated at 56° C. for 30 min), at 37° C. in 5% CO2. The medium was washed by addition of a histamine release buffer (IMMUNOTECH) followed by centrifugation (1500 rpm, 5 min, 4° C.) and removal of the supernatant. The washing procedure was carried out twice. Then, a histamine release buffer was added to prepare a cell suspension having a cell density of 10^5 cells/ml. […] After centrifugation (2000 rpm, 10 min, 4° C.), the histamine content of the supernatant was measured using a Histamine EIA Kit (IMMUNOTECH) (N=4). Then, the mean and standard deviation of the measured values were obtained from the calibration curve, and the histamine release suppression rate (%) was calculated according to the following equation: [formula] wherein: • A represents the histamine content (n M) released from cells treated with the test substance/reference substance and CRA-1; • B represents the histamine content (n M) released from untreated cells; and • C represents the histamine content (n M) released from cells treated with CRA-1 only.

With `CNC[C@H](O)c1ccc(O)c(O)c1` [epinephrine], the “histamine release suppression rate” value was 52±16%.
